Tested on: L6 myotubes
Experiment: Glucose uptake (2-deoxy-D-[3H]glucose) in L6 myotubes, effectiveness in muscular glucose utilization
Type: cell-based
Settings: Rattus norvegicus, L6 myotubes treated with compound 2 hours
Procedure: L6 myoblasts were cultured in DMEM supplemented with 10% FBS. Confluent cells were differentiated to myotubes by culturing with DMEM supplemented with 2% FBS for 6 days. L6 myotubes were treated with compounds for 2 hours. Glucose uptake was performed in 16 h serum-starved cells. Cells were washed with PBS and incubated in Krebs-Ringer phosphate-HEPES buffer containing 0.1% BSA with or without 100 nmol/l insulin. Then, cells were incubated with 0.05 mmol/l 2-deoxy-D-glucose and 0.5 μCi 2-deoxy-D-[1,2-^3H]glucose for 10 min. The assay was terminated by washing the cells three times with ice-cold PBS. Cells were solubilised with 0.1% triton X-100 and radioactivity was determined by liquid scintillation counting. Total cellular protein concentration was measured by the Bradford method. Glucose uptake was performed in duplicate. The compounds were tested at concentrations of 1 uM and 3 uM. In this test, the compounds of formula (I) induce a glucose uptake activity between 1 and 2 fold the glucose uptake activity of the vehicle. Some particularly preferred compounds of formula (I) induce a glucose uptake activity between 1.2 and 2 fold the glucose uptake of the vehicle. Other particularly preferred compounds of formula (I) induce a glucose uptake activity between 1.4 and 2 fold the glucose uptake activity of the vehicle.

Structure (SMILES)	fold induction at 1 µM	fold induction at 3 µM
COc1ccc2c(c1OC)C(c1ccccc1)N1CCc3cc4c(cc3C1=C2)OCO4 (centres unmarked) [Example 1, 9,10-Dimethoxy-8-phenyl-5,8-dihydro-6H-[1,3]dioxolo[4,5-g]isoquino[3,2-a]isoquinoline]	1.32	1.3
COc1ccc2c(c1OC)C1(CCCC1)N1CCc3cc4c(cc3C1C2)OCO4 (centres unmarked) [Example 2, 9′,10′-Dimethoxy-5′,6′,13′,13a′-tetrahydrospiro[cyclopentane-1,8′-[1,3]dioxolo[4,5-g]isoquino[3,2-a]isoquinoline]]	1.11	1.07
C=CC1c2c(ccc(OC)c2OC)C=C2c3cc4c(cc3CCN21)OCO4 (centres unmarked) [Example 3, 9,10-Dimethoxy-8-vinyl-5,8-dihydro-6H-[1,3]dioxolo[4,5-g]isoquino[3,2-a]isoquinoline]	1.16	1.11
C=C(C)C1c2c(ccc(OC)c2OC)C=C2c3cc4c(cc3CCN21)OCO4 (centres unmarked) [Example 4, 8-Isopropenyl-9,10-dimethoxy-5,8-dihydro-6H-[1,3]dioxolo[4,5-g]isoquino[3,2-a]isoquinoline]	1.86	1.46
C#CC1c2c(ccc(OC)c2OC)C=C2c3cc4c(cc3CCN21)OCO4 (centres unmarked) [Example 5, 8-Ethynyl-9,10-dimethoxy-5,8-dihydro-6H-[1,3]dioxolo[4,5-g]isoquino[3,2-a]isoquinoline]	–	1.15
C=CCC1c2c(ccc(OC)c2OC)C=C2c3cc4c(cc3CCN21)OCO4 (centres unmarked) [Example 6, 8-Allyl-9,10-dimethoxy-5,8-dihydro-6H-[1,3]dioxolo[4,5-g]isoquino[3,2-a]isoquinoline]	–	1.07
CC#CC1c2c(ccc(OC)c2OC)C=C2c3cc4c(cc3CCN21)OCO4 (centres unmarked) [Example 7, 9,10-Dimethoxy-8-prop-1-ynyl-5,8-dihydro-6H-[1,3]dioxolo[4,5-g]isoquino[3,2-a]isoquinoline]	1.58	1.68
C=C(C)C1c2c(ccc(OC)c2OC)C(C)=C2c3cc4c(cc3CCN21)OCO4 (centres unmarked) [Example 8, 8-Isopropenyl-9,10-dimethoxy-13-methyl-5,8-dihydro-6H-[1,3]dioxolo[4,5-g]isoquino[3,2-a]isoquinoline]	1.2	1.35
CC#CC1c2c(ccc(OC)c2OC)C(C)=C2c3cc4c(cc3CCN21)OCO4 (centres unmarked) [Example 9, 9,10-Dimethoxy-13-methyl-8-prop-1-ynyl-5,8-dihydro-6H-[1,3]dioxolo[4,5-g]isoquino[3,2-a]isoquinoline]	1.63	0.99
C=C(C)C1c2c(ccc(OC)c2OC)C(CC)=C2c3cc4c(cc3CCN21)OCO4 (centres unmarked) [Example 10, 13-Ethyl-8-isopropenyl-9,10-dimethoxy-5,8-dihydro-6H-[1,3]dioxolo[4,5-g]isoquino[3,2-a]isoquinoline]	1.05	1.22
C=CCC1c2c(ccc(OC)c2OC)C(CC)=C2c3cc4c(cc3CCN21)OCO4 (centres unmarked) [Example 11, 8-Allyl-13-ethyl-9,10-dimethoxy-5,8-dihydro-6H-[1,3]dioxolo[4,5-g]isoquino[3,2-a]isoquinoline]	1.15	–
CC#CC1c2c(ccc(OC)c2OC)C(CC)=C2c3cc4c(cc3CCN21)OCO4 (centres unmarked) [Example 12, 13-Ethyl-9,10-dimethoxy-8-prop-1-ynyl-5,8-dihydro-6H-[1,3]dioxolo[4,5-g]isoquino[3,2-a]isoquinoline]	1.59	1.22
C=CCC1=C2c3cc4c(cc3CCN2C(C(=C)C)c2c1ccc(OC)c2OC)OCO4 (centres unmarked) [Example 13, 13-Allyl-8-isopropenyl-9,10-dimethoxy-5,8-dihydro-6H-[1,3]dioxolo[4,5-g]isoquino[3,2-a]isoquinoline]	0.94	1.05
COc1ccc2c(c1OC)C(C)(C)N1CCc3cc4c(cc3C1=C2C)OCO4 [Example 14, 9,10-Dimethoxy-8,8,13-trimethyl-5,8-dihydro-6H-[1,3]dioxolo[4,5-g]isoquino[3,2-a]isoquinoline]	1.21	1.18
CCC1(CC)c2c(ccc(OC)c2OC)C(C)=C2c3cc4c(cc3CCN21)OCO4 [Example 15, 8,8-Diethyl-9,10-dimethoxy-13-methyl-5,8-dihydro-6H-[1,3]dioxolo[4,5-g]isoquino[3,2-a]isoquinoline]	1.22	1.14
CCC1=C2c3cc4c(cc3CCN2C(C)(C)c2c1ccc(OC)c2OC)OCO4 [Example 16, 13-Ethyl-9,10-dimethoxy-8,8-dimethyl-5,8-dihydro-6H-[1,3]dioxolo[4,5-g]isoquino[3,2-a]isoquinoline]	1.25	0.91
C=CCC1(CC=C)c2c(ccc(OC)c2OC)C=C2c3cc4c(cc3CCN21)OCO4 [Example 17, 8,8-Diallyl-9,10-dimethoxy-5,8-dihydro-6H-[1,3]dioxolo[4,5-g]isoquino[3,2-a]isoquinoline]	1.34	1.04
COc1ccc2c(c1OC)C(C)(C)N1CCc3cc4c(cc3C1=C2Cc1ccccc1)OCO4 [Example 18, 13-Benzyl-9,10-dimethoxy-8,8-dimethyl-5,8-dihydro-6H-[1,3]dioxolo[4,5-g]isoquino[3,2-a]isoquinoline]	1.19	1.05
COc1cc(Cl)c2c(c1OC)C(C)(C)N1CCc3cc4c(cc3C1=C2)OCO4 [Example 19, 12-Chloro-9,10-dimethoxy-8,8-dimethyl-5,8-dihydro-6H-[1,3]dioxolo[4,5-g]isoquino[3,2-a]isoquinoline]	1.25	1.24
COc1ccc2c(c1OC)C1(CCCC1)N1CCc3cc4c(cc3C1=C2)OCO4 [Example 20, 9′,10′-Dimethoxy-5′,6′-dihydrospiro[cyclopentane-1,8′-[1,3]dioxolo[4,5-g]isoquino[3,2-a]isoquinoline]]	1.2	1.18
COc1ccc2c(c1OC)C(C)(C)N1CCc3cc4c(cc3C1C2)OCO4 (centres unmarked) [Example 21, 9,10-Dimethoxy-8,8-dimethyl-5,8,13,13a-tetrahydro-6H-[1,3]dioxolo[4,5-g]isoquino[3,2-a]isoquinoline]	1.22	1.14
COc1ccc2c(c1OC)C(C)(C)N1CCc3cc4c(cc3C1C2C)OCO4 (centres unmarked) [Example 22, 9,10-Dimethoxy-8,8,13-trimethyl-5,8,13,13a-tetrahydro-6H-[1,3]dioxolo[4,5-g]isoquino[3,2-a]isoquinoline]	1.38	1.46
CCC1(CC)c2c(ccc(OC)c2OC)C(C)C2c3cc4c(cc3CCN21)OCO4 (centres unmarked) [Example 23, 8,8-Diethyl-9,10-dimethoxy-13-methyl-5,8,13,13a-tetrahydro-6H-[1,3]dioxolo[4,5-g]isoquino[3,2-a]isoquinoline]	1.1	1.14
COc1ccc2c(c1OC)C(C)(C)N1CCc3cc4c(cc3C1C2Cc1ccccn1)OCO4 (centres unmarked) [Example 24, 9,10-Dimethoxy-8,8-dimethyl-13-pyridin-2-ylmethyl-5,8,13,13a-tetrahydro-6H-[1,3]dioxolo[4,5-g]isoquino[3,2-a]isoquinoline]	1.11	1.03
COc1ccc2c(c1OC)C(C)(C)N1CCc3cc4c(cc3C1C2Cc1ccccc1)OCO4 (centres unmarked) [Example 25, 13-Benzyl-9,10-dimethoxy-8,8-dimethyl-5,8,13,13a-tetrahydro-6H-[1,3]dioxolo[4,5-g]isoquino[3,2-a]isoquinoline]	1.13	1.02
COc1ccc2c(c1OC)C1(CC=CC1)N1CCc3cc4c(cc3C1C2)OCO4 (centres unmarked) [Example 26, 9′,10′-Dimethoxy-5′,6′,13′,13a′-tetrahydrospiro[cyclopent-3-ene-1,8′-[1,3]dioxolo[4,5-g]isoquino[3,2-a]isoquinoline]]	1.12	1.11
COc1ccc2c(c1OC)C(C)(C)N1CCc3cc4c(cc3C1=C2)OCO4 [Example 27, 9,10-Dimethoxy-8,8-dimethyl-5,8-dihydro-6H-[1,3]dioxolo[4,5-g]isoquino[3,2-a]isoquinoline]	1.62	1.65
CCC1(CC)c2c(ccc(OC)c2OC)C=C2c3cc4c(cc3CCN21)OCO4 [Example 28, 8,8-Diethyl 9,10-dimethoxy-5,8-dihydro-6H-[1,3]dioxolo[4,5-g]isoquino[3,2-a]isoquinoline]	1.47	1.12
